Entries after “also recorded” stand apart in the source; their conditions may differ.
What was measured:
[1] = tested on: Osteoarthritic fibroblast-like chondrocytes; test: MMP13 expression by real time RT-PCR in osteoarthritic fibroblast-like chondrocytes; assay type: cell-based; conditions: 0.1 percent hyaluronic acid and/or 0.1 micromolar dexamethasone
Description: Osteoarthritic fibroblast-like chondrocytes were cultured for 2 to 28 days in the presence of either 0.1 percent hyaluronic acid, 0.1 micromolar dexamethasone, or both 0.1 percent hyaluronic acid and 0.1 micromolar dexamethasone. Media was exchanged every 2-3 days. Chondrocytes cultured for 2 days, 14 days, or 28 days were analyzed by real time RT-PCR to assess matrix metallopeptidase 13 (MMP13) expression.

[2] = tested on: Human osteoarthritic chondrocytes; test: Immunostaining for SOX9, Col2a1 and ACAN of osteoarthritic chondrocytes cultured 24 days on HA hydrogel; assay type: cell-based
Excerpt: ACAN is an articular cartilage-specific proteoglycan that is important to the proper function and the load-bearing capacity of cartilage. Data is presented as the fluorescence of photographic images captured on an epifluorescent microscope for the ACAN signal (FU) normalized to the signal of 4′,6-diamidino-2-phenylindole (DAPI) nuclear stain, designated as FU/DAPI.
The chondrocytes were layered on top of an HA hydrogel (SYNVISC®, Sanofi-Aventis, United States). Following 24 days, the cells were fixed with paraformaldehyde and immunostained for SOX9, Col2a1, and ACAN.

[3] = tested on: Human osteoarthritic chondrocytes; test: Microscopic examination of chondrocyte spheroid morphology on HA hydrogel; assay type: cell-based
Description: The chondrocytes were layered on top of an HA hydrogel (SYNVISC®, Sanofi-Aventis, United States). Following 20 days, hyaluronidase was added to release the cells from the hydrogel, the cells were collected, and total RNA was isolated.
Control chondrocytes established a monolayer on the bottom surface of their culture wells (FIG. 4A).

[4] = tested on: THP-1 macrophage-like cells; test: IL-1beta release (ELISA) from PMA-differentiated THP-1 cells activated with LPS then ATP; assay type: cell-based, human; conditions: 0.2 (0.19) to 6 millimolar; LPS 100 ng/mL 24 hours then 10 millimolar ATP 1 hour
Description: The human monocyte cell line THP-1 was differentiated into macrophage-like cells with PMA for 72 hours. […] Cells were then activated with 100 nanograms per milliliter lipopolysaccharide (LPS) for 24 hours followed by an additional hour with 10 millimolar adenosine triphosphate (ATP). LPS is a toll-like receptor 4 (TLR4) agonist, and ATP activates […] to promote inflammasome activity. The resulting IL-1beta release was quantified by enzyme-linked immunosorbent assay (ELISA).

[5] = tested on: THP-1 macrophage-like cells; test: IL-1beta release (ELISA) from PMA-differentiated THP-1 cells stimulated with CL075 with or without ATP; assay type: cell-based, human; conditions: 1 millimolar decanoic acid
Description: TLR7/8 agonists increase inflammasome activity and IL-1beta release through a different pathway relative to TLR4 agonists. To evaluate this response, THP-1 monocytic cells were differentiated to a macrophage-like state using PMA for 72 hours. […] To further activate the inflammasome, ATP was then added to the wells designated “second hit,” and the cultures were incubated for an additional hour. To indicated wells, hyaluronidase was added for 15 minutes, and all mediums harvested for IL-1beta ELISA quantification. Results are depicted in FIG. 7.

[6] = tested on: THP-1 macrophage-like cells; test: Colorimetric MTS cell density/viability assay, resting and activated THP-1 cultures; assay type: cell-based, human; conditions: 6 millimolar decanoic acid
Description: Then cell density was assessed in both resting and activated cultures using a colorimetric MTS assay with optical density at 490 nanometers (FIGS. 6A & 6B).

[7] = tested on: THP-1 macrophage-like cells; test: Tetrazolium colorimetric cell count assay of THP-1 cultures on HA hydrogel; assay type: cell-based, human; conditions: addition of decanoic acid (1 millimolar) on HA hydrogel
Description: A colorimetric assay confirmed that the inhibition of IL-1beta release was not caused solely by reduced cell counts. Tetrazolium colorimetric dye was added to the cultures at the end of the experiment and cell counts were measured by optical density at 490 nanometers.

[8] = high-density monolayers, vehicle, 0.1, 0.5 and 1 millimolar decanoic acid

Compound	Change in MMP13 expression at day 2 [1]	Change in MMP13 expression at day 14 [1]	Change in MMP13 expression at day 28 [1]	spheroid development or condensation ([2]; 1 millimolar decanoic acid, 24 days on HA hydrogel)	concentration of peak Col2a1 staining ([2]; high-density monolayers) [millimolar]	punctate staining for Col2a1 [2, 8]	staining for aggrecan (ACAN) [2, 8]	nuclear staining for SOX9 ([2]; high-density monolayers, vehicle, 0.1, 0.5 and 1 millimolar decanoic acid, 24 days on HA hydrogel)	punctate immunostaining for Col2a1 ([2]; low-density monolayers, 1 millimolar decanoic acid)	intracellular staining for ACAN (FU/DAPI, FIG. 1) ([2]; low-density monolayers, increasing millimolar concentrations, strongest at 1 millimolar)	ACAN immunostaining of chondrocyte spheroids ([2]; spheroids on HA hydrogels, 1 millimolar decanoic acid)	spheroid morphology after 4 days of culture ([3]; 4 days on HA hydrogel, with vs without decanoic acid)	spheroid morphology after 20 days of culture ([3]; 20 days on HA hydrogel, 1 millimolar decanoic acid vs without)	inhibition of inflammasome-IL-1beta release [4]	decrease concentration of IL-1beta ([5]; CL075 24 hours then ATP 1 hour (second hit)) [%]	decrease concentration of IL-1beta ([5]; CL075 24 hours, absence of ATP (first hit)) [%]	cell density / viability (MTS, OD 490 nanometers) [6]	decrease in optical density at 490 nanometers (cell counts) ([7]; CL075, absence of ATP) [%]	decrease in optical density at 490 nanometers (cell counts) ([7]; CL075, presence of ATP) [%]
C[C@@H]1C[C@H]2[C@@H]3CCC4=CC(=O)C=C[C@]4(C)[C@@]3(F)[C@@H](O)C[C@]2(C)[C@@]1(O)C(=O)CO [dexamethasone]	0	−399	−4																
CCCCCCCCCC(=O)O [decanoic acid]				enhanced spheroid development or condensation	0.5	dose-dependent punctate staining for Col2a1	dose-dependent increase in staining for aggrecan	enhanced nuclear staining for SOX9 in a dose-dependent manner	strong punctate immunostaining for Col2a1	dose-dependent increase in aggrecan (ACAN) immunofluorescence staining; also recorded: dose-dependent intracellular staining for ACAN	strong ACAN immunostaining	the spheroids generated interconnected networks; also recorded: promoted interconnected networks of spheroids	increased condensation and the development of large spheroids; also recorded: large spheroid development or condensation	dose-dependent inhibition of IL-1beta concentrations; also recorded: dose-dependent inhibition of inflammasome-IL-1beta release	91	77	significant decrease in viability; also recorded: unfavorable effect on cell density	18	25
